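Compound exposure: 48 hours, 5 concentrations, 96-well plates. GI50 = concentration required for 50% inhibition of growth. At the TGI there is no net growth.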
Legend:
Test in all cases: growth of human tumour cells (NCI), 48 h
NCI-H522 lung = system: NCI-H522 lung
HCT-116 colon = system: HCT-116 colon
SK-OV-3 ovarian = system: SK-OV-3 ovarian
SK-MEL-2 melanoma = system: SK-MEL-2 melanoma
KM12 colon = system: KM12 colon
SK-MEL-28 melanoma = system: SK-MEL-28 melanoma
A549 NSCLC = system: A549 NSCLC
HS 578T breast = system: HS 578T breast
DU-145 prostate = system: DU-145 prostate
MCF7 breast = system: MCF7 breast
M14 melanoma = system: M14 melanoma
MALME-3M melanoma = system: MALME-3M melanoma
NCI-H226 lung = system: NCI-H226 lung
MDA-MB-435 = system: MDA-MB-435
SN12C renal = system: SN12C renal
EKVX NSCLC = system: EKVX NSCLC
HCT-15 colon = system: HCT-15 colon
ACHN renal = system: ACHN renal
K-562 leukemia = system: K-562 leukemia
SNB-75 CNS = system: SNB-75 CNS
RPMI-8226 leukemia = system: RPMI-8226 leukemia
SW-620 colon = system: SW-620 colon
OVCAR-5 ovarian = system: OVCAR-5 ovarian
HL-60(TB) leukemia = system: HL-60(TB) leukemia
A498 renal = system: A498 renal
PC-3 prostate = system: PC-3 prostate
IGROV1 ovarian = system: IGROV1 ovarian
UACC-257 melanoma = system: UACC-257 melanoma
UO-31 renal = system: UO-31 renal
UACC-62 melanoma = system: UACC-62 melanoma
HT29 colon = system: HT29 colon
SF-295 CNS = system: SF-295 CNS
HOP-62 NSCLC = system: HOP-62 NSCLC
U251 CNS = system: U251 CNS
MDA-MB-231 breast = system: MDA-MB-231 breast
SF-268 CNS = system: SF-268 CNS
NCI-H460 lung = system: NCI-H460 lung
NCI-H23 lung = system: NCI-H23 lung
T-47D breast = system: T-47D breast
CAKI-1 renal = system: CAKI-1 renal
HOP-92 NSCLC = system: HOP-92 NSCLC
SK-MEL-5 melanoma = system: SK-MEL-5 melanoma
SNB-19 CNS = system: SNB-19 CNS
RXF 393 renal = system: RXF 393 renal
OVCAR-4 ovarian = system: OVCAR-4 ovarian
786-0 renal = system: 786-0 renal
SF-539 CNS = system: SF-539 CNS
TK-10 renal = system: TK-10 renal
NCI/ADR-RES ovarian = system: NCI/ADR-RES ovarian
OVCAR-3 ovarian = system: OVCAR-3 ovarian
HCC-2998 colon = system: HCC-2998 colon
OVCAR-8 ovarian = system: OVCAR-8 ovarian
BT-549 breast = system: BT-549 breast
COLO 205 colon = system: COLO 205 colon
CCRF-CEM leukemia = system: CCRF-CEM leukemia

Q: For COc1cc2c(cc1OC)[C@@H]1C(=O)c3cc4c(cc3[C@@H]1N(CCN(C)C)C2=O)OCO4, which GI50 (NCI-H522 lung) is on record?
A: 61.1 nM

Q: And the TGI (NCI-H522 lung)?
A: 3200 nM

Q: And the GI50 (HCT-116 colon)?
A: 116 nM

Q: What about the TGI (HCT-116 colon) of the same molecule?
A: 1530 nM

Q: And the GI50 (SK-OV-3 ovarian)?
A: 4200 nM

Q: What about the TGI (SK-OV-3 ovarian) of the same molecule?
A: > 65200 nM

Q: And the GI50 (SK-MEL-2 melanoma)?
A: 11100 nM

Q: What about the TGI (SK-MEL-2 melanoma) of the same molecule?
A: > 100000 nM

Q: And the GI50 (KM12 colon)?
A: 355 nM

Q: And the TGI (KM12 colon)?
A: 2170 nM

Q: What about the GI50 (SK-MEL-28 melanoma) of the same molecule?
A: 2190 nM

Q: And the TGI (SK-MEL-28 melanoma)?
A: > 41300 nM

Q: What about the GI50 (A549 NSCLC) of the same molecule?
A: 171 nM

Q: And the TGI (A549 NSCLC)?
A: 3670 nM

Q: What about the GI50 (HS 578T breast) of the same molecule?
A: 11100 nM

Q: What about the TGI (HS 578T breast) of the same molecule?
A: 38500 nM

Q: What about the GI50 (DU-145 prostate) of the same molecule?
A: 30 nM

Q: What about the TGI (DU-145 prostate) of the same molecule?
A: 4840 nM

Q: What about the GI50 (MCF7 breast) of the same molecule?
A: < 36.6 nM

Q: What about the TGI (MCF7 breast) of the same molecule?
A: 14200 nM

Q: What about the GI50 (M14 melanoma) of the same molecule?
A: 81.4 nM

Q: What about the TGI (M14 melanoma) of the same molecule?
A: 11200 nM

Q: And the GI50 (MALME-3M melanoma)?
A: 188 nM

Q: And the TGI (MALME-3M melanoma)?
A: 3660 nM

Q: What about the GI50 (NCI-H226 lung) of the same molecule?
A: 210 nM

Q: What about the TGI (NCI-H226 lung) of the same molecule?
A: 2280 nM

Q: And the GI50 (MDA-MB-435)?
A: 787 nM

Q: And the TGI (MDA-MB-435)?
A: 23500 nM

Q: And the GI50 (SN12C renal)?
A: 44.4 nM

Q: What about the TGI (SN12C renal) of the same molecule?
A: 3740 nM

Q: And the GI50 (EKVX NSCLC)?
A: 1260 nM

Q: And the TGI (EKVX NSCLC)?
A: 21500 nM

Q: And the GI50 (HCT-15 colon)?
A: 368 nM

Q: What about the TGI (HCT-15 colon) of the same molecule?
A: 5820 nM

Q: And the GI50 (ACHN renal)?
A: 17.9 nM

Q: What about the TGI (ACHN renal) of the same molecule?
A: 452 nM

Q: And the GI50 (K-562 leukemia)?
A: 270 nM

Q: What about the TGI (K-562 leukemia) of the same molecule?
A: > 42400 nM

Q: And the GI50 (SNB-75 CNS)?
A: 11100 nM

Q: And the TGI (SNB-75 CNS)?
A: 30700 nM

Q: What about the GI50 (RPMI-8226 leukemia) of the same molecule?
A: 28.9 nM

Q: And the TGI (RPMI-8226 leukemia)?
A: 349 nM

Q: And the GI50 (SW-620 colon)?
A: 36.9 nM

Q: And the TGI (SW-620 colon)?
A: 18700 nM

Q: And the GI50 (OVCAR-5 ovarian)?
A: 1100 nM

Q: What about the TGI (OVCAR-5 ovarian) of the same molecule?
A: 15500 nM

Q: What about the GI50 (HL-60(TB) leukemia) of the same molecule?
A: 23.7 nM

Q: What about the TGI (HL-60(TB) leukemia) of the same molecule?
A: 75.2 nM

Q: What about the GI50 (A498 renal) of the same molecule?
A: 2780 nM

Q: What about the TGI (A498 renal) of the same molecule?
A: 9430 nM

Q: What about the GI50 (PC-3 prostate) of the same molecule?
A: 316 nM

Q: And the TGI (PC-3 prostate)?
A: 13300 nM

Q: What about the GI50 (IGROV1 ovarian) of the same molecule?
A: 445 nM

Q: And the TGI (IGROV1 ovarian)?
A: > 100000 nM

Q: What about the GI50 (UACC-257 melanoma) of the same molecule?
A: 784 nM

Q: What about the TGI (UACC-257 melanoma) of the same molecule?
A: > 33100 nM

Q: And the GI50 (UO-31 renal)?
A: 85.5 nM

Q: And the GI50 (UACC-62 melanoma)?
A: < 14.6 nM

Q: What about the TGI (UACC-62 melanoma) of the same molecule?
A: 544 nM

Q: What about the GI50 (HT29 colon) of the same molecule?
A: 104 nM

Q: And the GI50 (SF-295 CNS)?
A: 19.4 nM

Q: And the TGI (SF-295 CNS)?
A: 37100 nM

Q: And the GI50 (HOP-62 NSCLC)?
A: 35.5 nM

Q: What about the TGI (HOP-62 NSCLC) of the same molecule?
A: 10600 nM

Q: What about the GI50 (U251 CNS) of the same molecule?
A: 42.7 nM

Q: And the TGI (U251 CNS)?
A: 12000 nM

Q: What about the GI50 (MDA-MB-231 breast) of the same molecule?
A: 1060 nM

Q: And the TGI (MDA-MB-231 breast)?
A: 11800 nM

Q: What about the GI50 (SF-268 CNS) of the same molecule?
A: 56 nM

Q: And the TGI (SF-268 CNS)?
A: 18100 nM

Q: What about the GI50 (NCI-H460 lung) of the same molecule?
A: < 23.4 nM

Q: And the TGI (NCI-H460 lung)?
A: 2360 nM

Q: And the GI50 (NCI-H23 lung)?
A: 162 nM

Q: What about the TGI (NCI-H23 lung) of the same molecule?
A: 5090 nM

Q: And the GI50 (T-47D breast)?
A: 923 nM

Q: What about the TGI (T-47D breast) of the same molecule?
A: 31300 nM

Q: And the TGI (CAKI-1 renal)?
A: 1080 nM

Q: And the GI50 (HOP-92 NSCLC)?
A: 208 nM

Q: What about the TGI (HOP-92 NSCLC) of the same molecule?
A: 8870 nM

Q: And the GI50 (SK-MEL-5 melanoma)?
A: 144 nM

Q: What about the TGI (SK-MEL-5 melanoma) of the same molecule?
A: 935 nM

Q: And the GI50 (SNB-19 CNS)?
A: 1730 nM

Q: And the TGI (SNB-19 CNS)?
A: > 47300 nM

Q: What about the GI50 (RXF 393 renal) of the same molecule?
A: 1260 nM

Q: And the TGI (RXF 393 renal)?
A: > 21600 nM

Q: What about the GI50 (OVCAR-4 ovarian) of the same molecule?
A: 768 nM

Q: What about the TGI (OVCAR-4 ovarian) of the same molecule?
A: 18300 nM

Q: And the GI50 (786-0 renal)?
A: < 20.3 nM

Q: And the TGI (786-0 renal)?
A: 5020 nM

Q: What about the GI50 (SF-539 CNS) of the same molecule?
A: 66.9 nM

Q: And the TGI (SF-539 CNS)?
A: 11100 nM

Q: And the GI50 (TK-10 renal)?
A: 1530 nM

Q: And the TGI (TK-10 renal)?
A: 13700 nM

Q: And the GI50 (NCI/ADR-RES ovarian)?
A: 337 nM

Q: And the TGI (NCI/ADR-RES ovarian)?
A: 14700 nM

Q: And the GI50 (OVCAR-3 ovarian)?
A: 349 nM

Q: What about the TGI (OVCAR-3 ovarian) of the same molecule?
A: 1960 nM

Q: And the GI50 (HCC-2998 colon)?
A: 609 nM

Q: What about the TGI (HCC-2998 colon) of the same molecule?
A: 9770 nM

Q: And the GI50 (OVCAR-8 ovarian)?
A: 661 nM

Q: What about the TGI (OVCAR-8 ovarian) of the same molecule?
A: 9660 nM

Q: What about the GI50 (BT-549 breast) of the same molecule?
A: 838 nM

Q: What about the TGI (BT-549 breast) of the same molecule?
A: 22900 nM

Q: What about the GI50 (COLO 205 colon) of the same molecule?
A: 663 nM

Q: What about the TGI (COLO 205 colon) of the same molecule?
A: > 35500 nM

Q: What about the TGI (CCRF-CEM leukemia) of the same molecule?
A: > 100000 nM

Reference: PubChem BioAssay (NCI)
